pKi: −log10 of the molar value.

The experiment addresses T1, unphosphorylated VEGF-R2Δ50 (FLVK) (Homo sapiens, UniProt P35968, DEL940-989/E990V).
T1 construct: VEGF-R2Δ50 contains residues 806-939 and 990-1171; made in house; host or cells: baculovirus/insect cell system
Briefly: VEGF-R2 coupled spectrophotometric assay, unphosphorylated construct (FLVK). The settings on record: for inhibition at 0.05 µM: percent inhibition at 50 nM. The class given is biochemical. An excerpt:
This construct determines the ability of a test compound to inhibit tyrosine kinase activity. A construct (VEGF-R2Δ50) of the cytosolic domain of human vascular endothelial growth factor receptor 2 (VEGF-R2) lacking the 50 central residues of the 68 residues of the kinase insert domain was expressed in a baculovirus/insect cell system. Of the 1356 residues of full-length VEGF-R2, VEGF-R2Δ50 contains residues 806-939 and 990-1171, and also one point mutation (E990V) within the kinase insert domain relative to wild-type VEGF-R2. Autophosphorylation of the purified construct was performed by incubation of the enzyme at a concentration of 4 μM in the presence of 3 mM ATP and 40 mM MgCl2 in 100 mM HEPES, pH 7.5, containing 5% glycerol and 5 mM DTT, at 4° C. for 2 h. […] See Parast et al., Biochemistry, 37, 16788-16801 (1998).
The production of ADP from ATP that accompanies phosphoryl transfer was coupled to oxidation of NADH using phosphoenolpyruvate (PEP) and a system having pyruvate kinase (PK) and lactic dehydrogenase (LDH). The oxidation of NADH was monitored by following the decrease of absorbance at 340 nm ([…]=6.22 cm^−1 mM^−1) using a Beckman DU 650 spectrophotometer. Assay conditions for phosphorylated VEGF-R2Δ50 (indicated as FLVK-P in the tables below) were the following: 1 mM PEP; 250 μM NADH; 50 units of LDH/mL; 20 units of PK/mL; 5 mM DTT; […]; 1 mM ATP; and 25 mM MgCl2 in 200 mM HEPES, pH 7.5. Assay conditions for unphosphorylated VEGF-R2Δ50 (indicated as FLVK in the tables) were the following: 1 mM PEP; 250 μM NADH; 50 units of LDH/mL; 20 units of PK/mL; 5 mM DTT; […]; 3 mM ATP; and 60 mM MgCl2 and 2 mM MnCl2 in 200 mM HEPES, pH 7.5. Assays were initiated with 5 to 40 nM of enzyme. Ki values were determined by measuring enzyme activity in the presence of varying concentrations of test compounds. The percent inhibition at 50 nm (% inhibition@ 50 nm) was determined by linear least-squares regression analysis of absorbance as a function of time. The binding inhibitions were fitted to equation as described by Morrison. The data were analyzed using Enzyme Kinetic and Kaleidagraph software.

T1 sequence (P35968 with tags, fused parts or gaps DEL940-989/E990V limits assumed): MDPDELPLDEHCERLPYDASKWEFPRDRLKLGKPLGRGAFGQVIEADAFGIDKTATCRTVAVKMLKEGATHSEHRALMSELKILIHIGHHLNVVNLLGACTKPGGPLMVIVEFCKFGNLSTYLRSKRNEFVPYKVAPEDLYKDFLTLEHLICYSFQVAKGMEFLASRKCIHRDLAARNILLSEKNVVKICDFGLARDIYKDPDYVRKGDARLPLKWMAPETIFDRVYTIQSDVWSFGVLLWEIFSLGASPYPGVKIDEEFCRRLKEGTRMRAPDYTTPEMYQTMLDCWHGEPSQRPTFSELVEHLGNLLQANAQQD

The molecule `CNC(=O)n1c(C)cc2cc(Oc3ccnc4cc(C(=O)N5C[C@H](OC)[C@H](OC)C5)sc34)ccc21` [Example 4r, 5-[2-(3,4-cis-Dimethoxy-pyrrolidine-1-carbonyl)-thieno[3,2-b]pyridin-7-yloxy]-2-methyl-indole-1-carboxylic acid methylamide] had a pKi of 9.15 and an inhibition at 0.05 µM of 96%.
Take `CNC(=O)n1c(C)cc2cc(Oc3ccnc4cc(C(=O)N5C[C@@H](O)[C@@H](O)C5)sc34)ccc21` [Example 4s, 5-[2-(3,4-cis-Dihydroxy-pyrrolidine-1-carbonyl)-thieno[3,2-b]pyridin-7-yloxy]-2-methyl-indole-1-carboxylic acid methylamide]: the pKi is 10.07 and the inhibition at 0.05 µM amounted to 98%.
In the same order, the values of `CO[C@H]1CN(C(=O)c2cc3nccc(Oc4ccc5c(c4)cc(C)n5C(=O)NC4CC4)c3s2)C[C@H]1OC` [Example 4t, 5-[2-(3,4-cis-Dimethoxy-pyrrolidine-1-carbonyl)-thieno[3,2-b]pyridin-7-yloxy]-2-methyl-indole-1-carboxylic acid cyclopropylamide] are 9.23 and 98%.
In turn, `Cc1cc2cc(Oc3ccnc4cc(C(=O)N5C[C@@H](O)[C@@H](O)C5)sc34)ccc2n1C(=O)NC1CC1` [Example 4u, 5-[2-(3,4-cis-Dihydroxy-pyrrolidine-1-carbonyl)-thieno[3,2-b]pyridin-7-yloxy]-2-methyl-indole-1-carboxylic acid cyclopropylamide] had a pKi of 9.70 and an inhibition at 0.05 µM of 98%.
For `C#CCNC(=O)n1c(C)cc2cc(Oc3ccnc4cc(C(=O)N5C[C@H](OC)[C@H](OC)C5)sc34)ccc21` [Example 4v, 5-[2-(3,4-cis-Dimethoxy-pyrrolidine-1-carbonyl)-thieno[3,2-b]pyridin-7-yloxy]-2-methyl-indole-1-carboxylic acid prop-2-ynylamide], in that order: 9.38 and 99%.
Turning to `C#CCNC(=O)n1c(C)cc2cc(Oc3ccnc4cc(C(=O)N5C[C@@H](O)[C@@H](O)C5)sc34)ccc21` [Example 4w, 5-[2-(3,4-cis-Dihydroxy-pyrrolidine-1-carbonyl)-thieno[3,2-b]pyridin-7-yloxy]-2-methyl-indole-1-carboxylic acid prop-2-ynylamide], the pKi was 9.76 and testing at 0.05 µM gave an inhibition of 99%.
Regarding `CNC(=O)c1c(C)[nH]c2ccc(Oc3ccnc4cc(C(=O)N5CCC[C@@H]5COC)sc34)cc12` [Example 4x, 5-[2-(2R-Methoxymethyl-pyrrolidine-1-carbonyl)-thieno[3,2-b]pyridin-7-yloxy]-2-methyl-1H-indole-3-carboxylic acid methylamide], the pKi was 7.00 and 0.05 µM produced 1% inhibition.
In the same order, the values of `Cc1cc2c(F)c(Oc3ccnc4cc(C(=O)N5CC[C@H](O)C5)sc34)ccc2n1C(=O)NC1CC1` [Example 5j, 4-Fluoro-5-[2-(3S-hydroxy-pyrrolidine-1-carbonyl)-thieno[3,2-b]pyridin-7-yloxy]-2-methyl-indole-1-carboxylic acid cyclopropylamide] are 9.41 and 100%.
For the molecule `CNC(=O)n1c(C)cc2c(F)c(Oc3ccnc4cc(C(=O)N5CC[C@@H](OC)C5)sc34)ccc21` [Example 5l, 4-Fluoro-5-[2-(3R-methoxy-pyrrolidine-1-carbonyl)-thieno[3,2-b]pyridin-7-yloxy]-2-methyl-indole-1-carboxylic acid methylamide], the pKi is 9.72 and testing at 0.05 µM gave an inhibition of 99%.
In turn, `CNC(=O)n1c(C)cc2c(F)c(Oc3ccnc4cc(C(=O)N5CC[C@@H](O)C5)sc34)ccc21` [Example 5m, 4-Fluoro-5-[2-(3R-hydroxy-pyrrolidine-1-carbonyl)-thieno[3,2-b]pyridin-7-yloxy]-2-methyl-indole-1-carboxylic acid methylamide] had a pKi of 9.23 and an inhibition at 0.05 µM of 98%.
`CNC(=O)n1c(C)c(Cl)c2c(F)c(Oc3ccnc4cc(C(=O)N5CC[C@H](O)C5)sc34)ccc21` [Example 6e, 3-Chloro-4-fluoro-5-[2-(3S-hydroxy-pyrrolidine-1-carbonyl)-thieno[3,2-b]pyridin-7-yloxy]-2-methyl-indole-1-carboxylic acid methylamide] had a negative logarithm of the Ki (pKi) of 9.55 and an inhibition at 0.05 µM of 99%.
Molecule `Cc1c(Cl)c2c(F)c(Oc3ccnc4cc(C(=O)N5CC[C@H](O)C5)sc34)ccc2n1C(=O)NC1CC1` [Example 6f, 3-Chloro-4-fluoro-5-[2-(3S-hydroxy-pyrrolidine-1-carbonyl)-thieno[3,2-b]pyridin-7-yloxy]-2-methyl-indole-1-carboxylic acid cyclopropyl-amide] gave a pKi of 9.81 and an inhibition at 0.05 µM of 98%.
Molecule `CNC(=O)n1c(C)c(Cl)c2c(F)c(Oc3ccnc4cc(C(=O)N5CC[C@@H](OC)C5)sc34)ccc21` [Example 6g, 3-Chloro-4-fluoro-5-[2-(3R-methoxy-pyrrolidine-1-carbonyl)-thieno[3,2-b]pyridin-7-yloxy]-2-methyl-indole-1-carboxylic acid methylamide] showed a negative-log Ki (pKi) of 8.91 and an inhibition at 0.05 µM of 97%.
Regarding `C#CCNC(=O)n1c(C)c(Cl)c2c(F)c(Oc3ccnc4cc(C(=O)N5CC[C@@H](OC)C5)sc34)ccc21` [Example 6h, 3-Chloro-4-fluoro-5-[2-((R)-3-methoxy-pyrrolidine-1-carbonyl)-thieno[3,2-b]pyridin-7-yloxy]-2-methyl-indole-1-carboxylic acid prop-2-ynylamide], the pKi is 9.85 and at 0.05 µM the inhibition was 98%.
On to `CNC(=O)n1c(C)cc2cc(Nc3ccnc4cc(C(=O)N5CC(F)[C@H](OC)C5)sc34)ccc21` (stereo partly drawn) [Example 7a, 5-[(2-{[(4R)-3-Fluoro-4-methoxypyrrolidin-1-yl]carbonyl}thieno[3,2-b]pyridin-7-yl)amino]-N,2-dimethyl-1H-indole-1-carboxamide], for which the negative-log Ki (pKi) is 9.10 and the inhibition at 0.05 µM was determined as 93%.
In the same order, the values of `CNC(=O)n1c(C)cc2cc(Nc3ccnc4cc(C(=O)N5CCC5)sc34)ccc21` [Example 7c, 5-[2-(Azetidine-1-carbonyl)-thieno[3,2-b]pyridin-7-ylamino]-2-methyl-indole-1-carboxylic acid methylamide] are 8.72 and 97%.
For `CNC(=O)n1c(C)cc2cc(Oc3ccnc4cc(C(=O)N5C[C@H](OC)[C@@H](O)C5)sc34)ccc21` [Example 8c], in that order: 9.91 and 98%.
`CNC(=O)n1c(C)cc2cc(Oc3ccnc4cc(C(=O)N5C[C@H](O)[C@@H](O)C5)sc34)ccc21` [Example 8d] had a pKi of 9.96 and an inhibition at 0.05 µM of 99%.
`CCCNC(=O)n1c(C)cc2cc(Oc3ccnc4cc(C(=O)N5C[C@H](OC)[C@@H](OC)C5)sc34)ccc21` [Example 8e, 5-[(2-{[(3S,4S)-3,4-dimethoxypyrrolidin-1-yl]carbonyl}thieno[3,2-b]pyridin-7-yl)oxy]-2-methyl-N-propyl-1H-indole-1-carboxamide] showed a pKi of 9.94 and an inhibition at 0.05 µM of 98%.
`CCCNC(=O)n1c(C)cc2cc(Oc3ccnc4cc(C(=O)N5C[C@H](O)[C@@H](O)C5)sc34)ccc21` [Example 8f, 5-[(2-{[(3S,4S)-3,4-Dihydroxypyrrolidin-1-yl]carbonyl}thieno[3,2-b]pyridin-7-yl)oxy]-2-methyl-N-propyl-1H-indole-1-carboxamide] showed a pKi of 9.46 and an inhibition at 0.05 µM of 99%.
For the molecule `CNC(=O)n1c(C)cc2cc(Oc3ccnc4cc(C(=O)N5CC(F)[C@@H](OC)C5)sc34)ccc21` (stereo partly drawn) [Example 8j, 5-[(2-{[(4S)-3-Fluoro-4-methoxypyrrolidin-1-yl]carbonyl}thieno[3,2-b]pyridin-7-yl)oxy]-N,2-dimethyl-1H-indole-1-carboxamide], the negative-log Ki (pKi) was 9.85 and the inhibition at 0.05 µM worked out at 99%.
The molecule `CO[C@H]1CCN(C(=O)c2cc3nccc(Oc4ccc5c(c4)cc(C)n5C(=O)NCCCCO)c3s2)C1` [Example 9a, 5-[2-(3S-Methoxy-pyrrolidine-1-carbonyl)-thieno[3,2-b]pyridin-7-yloxy]-2-methyl-indole-1-carboxylic acid (4-hydroxy-butyl)-amide] had a pKi of 9.28 and an inhibition at 0.05 µM of 89%.

The pKi is the Ki on a negative log10 scale, so that one unit is a factor of ten. Low readings indicate a high Ki, high ones a low Ki. The term inhibition denotes the percentage by which the read-out fell short of the control. Low values mean a response near the control, high ones a response far below the control.

For the origin of these results see US6833456B2, “Indolyl-urea derivatives of thienopyridines useful as antiangiogenic agents, and methods for their use” (Agouron Pharmaceuticals, Inc., priority 2002, dated 2004).
